The record followed here is article PMC5128008, “Antimicrobial activity and stability of the D-amino acid substituted derivatives of antimicrobial peptide polybia-MPI” (AMB Express, 2016).

In one data set the test system is E. coli (ATCC 2592). In words: MIC, broth microdilution. The format is cell-based. Conditions: Mueller–Hinton broth, 2 × 10^4 cfu/ml, peptide 1 to 256 µM, 18 h, 37 °C, visible turbidity, triplicate. On the procedure: (§1) The minimal inhibitory concentration (MIC) of the peptides was measured in triplicate by the standard broth microdilution method (Peterson et al. [1980]; Wang et al. [2012]). In brief, bacteria/fungi were cultured overnight to mid-logarithmic-phase in Mueller–Hinton broth (MHB)/Sabouraud dextrose broth. The cultures were diluted to a final concentration of 2 × 10^4 cfu/ml in fresh Mueller–Hinton broth (MHB)/Sabouraud dextrose broth. Each well of 96-well propylene microtitre plates was filled with 100 µl cell suspension and 100 μl peptide solution of twofold diluted serially. And the final concentrations of peptide mixtures ranged from 1 to 256 µM. Controls were done without peptides. After 18 h of incubation at 37 °C (bacteria)/35 °C (fungi), the minimal inhibitory concentration (MIC) of the peptides was evaluated by visible turbidity in each well.
For orientation: In broth dilution the organism is exposed to a series of concentrations in liquid medium.

A further data set relates to sakazakii (ATCC 29544). The data set is described as follows: MIC, broth microdilution. It counts as cell-based. Conditions: Mueller–Hinton broth, 2 × 10^4 cfu/ml, peptide 1 to 256 µM, 18 h, 37 °C, visible turbidity, triplicate. The procedure: as §1
Data set [1] concerns Bacillus subtilis (ATCC 23857). The data set is described as follows: MIC, broth microdilution. The format is cell-based. As to conditions: Mueller–Hinton broth, 2 × 10^4 cfu/ml, peptide 1 to 256 µM, 18 h, 37 °C, visible turbidity, triplicate. On the procedure:
as §1

Data set [2] deals with Candida glabrata ATCC (ATCC 2001). The data set is described as follows: MIC, broth microdilution. Conditions: Candida glabrata (ATCC 2001), Sabouraud dextrose broth, 2 × 10^4 cfu/ml, peptide 1 to 256 µM, 18 h, 35 °C, visible turbidity, triplicate. The format is cell-based. The procedure:
as §1

Data set [3] concerns E. coli (ML-35) (ATCC 43827). The data set is described as follows: MIC, broth microdilution. It counts as cell-based. Conditions: Mueller–Hinton broth, 2 × 10^4 cfu/ml, peptide 1 to 256 µM, 18 h, 37 °C, visible turbidity, triplicate. The procedure:
as §1

Data set [4] deals with Pseudomonas aeruginosa (ATCC 27853). In words: MIC, broth microdilution. It counts as cell-based. Conditions: Mueller–Hinton broth, 2 × 10^4 cfu/ml, peptide 1 to 256 µM, 18 h, 37 °C, visible turbidity, triplicate. The procedure: as §1
The test system of data set [5] is Candida albicans ATCC (ATCC 14053). The data set is described as follows: MIC, broth microdilution. As to conditions: Candida albicans (ATCC 14053), Sabouraud dextrose broth, 2 × 10^4 cfu/ml, peptide 1 to 256 µM, 18 h, 35 °C, visible turbidity, triplicate. The format is cell-based. On the procedure: as §1
Data set [6] concerns Staphylococcus epidermidis (ATCC 12228). In words: MIC, broth microdilution. It counts as cell-based. As to conditions: Mueller–Hinton broth, 2 × 10^4 cfu/ml, peptide 1 to 256 µM, 18 h, 37 °C, visible turbidity, triplicate. The procedure:
as §1

Data set [7] has as its system Staphylococcus aureus (ATCC 29213). The data set is described as follows: MIC, broth microdilution. Conditions: Mueller–Hinton broth, 2 × 10^4 cfu/ml, peptide 1 to 256 µM, 18 h, 37 °C, visible turbidity, triplicate. It counts as cell-based. The procedure: as §1
Data set [8] deals with Candida krusei (ATCC 6258). In words: MIC, broth microdilution. The format is cell-based. As to conditions: Sabouraud dextrose broth, 2 × 10^4 cfu/ml, peptide 1 to 256 µM, 18 h, 35 °C, visible turbidity, triplicate. On the procedure:
as §1

Data set [9] deals with Candida tropicalis (ATCC 750). In words: MIC, broth microdilution. It counts as cell-based. As to conditions: Sabouraud dextrose broth, 2 × 10^4 cfu/ml, peptide 1 to 256 µM, 18 h, 35 °C, visible turbidity, triplicate. On the procedure: as §1
Data set [10] deals with Candida parapsilosis (ATCC 22019). In words: MIC, broth microdilution. The format is cell-based. As to conditions: Sabouraud dextrose broth, 2 × 10^4 cfu/ml, peptide 1 to 256 µM, 18 h, 35 °C, visible turbidity, triplicate. The procedure:
as §1

Data set [11] is described as follows: RP-HPLC analysis of stability to proteases in human serum. It counts as in vitro ADME. Conditions: method details not given. An excerpt: In the present study, HPLC was used to determine the stability of polybia-MPI, D-lys-MPI and D-MPI to trypsin, chymotrypsin and proteases in human serum.
The subject of another data set is (ATCC 700603). As to conditions: ATCC 700603, 18 h.
Data set [12] has as its system C. parapsilosis (ATCC 22019). In words: MFC, plating after MIC incubation. Conditions: 50 µl aliquots from MIC wells onto agar plates, overnight 35 °C, lowest concentration reducing CFUs at least 99.9%. It counts as cell-based. The procedure:
as §1
(§2) The minimal bactericidal concentrations (MBCs) and minimum fungicidal concentration (MFCs) of the peptides was determined at the end of the incubation period by transferring 50 µl aliquots onto agar plates and incubated overnight at 37 °C/35 °C. The MBC/MFC was set as the lowest concentration of the number of CFUs that reduced at least 99.9%.

The test system of a further data set is C. krusei (ATCC 6258). The data set is described as follows: MFC, plating after MIC incubation. It counts as cell-based. Conditions: 50 µl aliquots from MIC wells onto agar plates, overnight 35 °C, lowest concentration reducing CFUs at least 99.9%. The procedure: as §1, §2
The subject of a further data set is C.tropicalis (ATCC 750). The data set is described as follows: MFC, plating after MIC incubation. The format is cell-based. Conditions: 50 µl aliquots from MIC wells onto agar plates, overnight 35 °C, lowest concentration reducing CFUs at least 99.9%. On the procedure: as §1, §2
Another data set relates to C. albicans (ATCC 14053). The data set is described as follows: MFC, plating after MIC incubation. The format is cell-based. As to conditions: 50 µl aliquots from MIC wells onto agar plates, overnight 35 °C, lowest concentration reducing CFUs at least 99.9%. On the procedure: as §1, §2
The subject of another data set is C. glabrata (ATCC 2001). The data set is described as follows: MFC, plating after MIC incubation. The format is cell-based. As to conditions: 50 µl aliquots from MIC wells onto agar plates, overnight 35 °C, lowest concentration reducing CFUs at least 99.9%. The procedure:
as §1, §2

A further data set relates to trypsin. The data set is described as follows: RP-HPLC analysis of stability to trypsin. It counts as in vitro ADME. As to conditions: peptide 10 mM, trypsin 0.2 mg/ml, 37 °C, 0 and 360 min, TFA/acetonitrile precipitation, Fig. 7. On the procedure:
The stability of polybia-MPI and its analogues was assayed with trypsin or chymotrypsin in a volume ratio of 1:15 (peptide:trypsin) (Choi et al. [2013]; Hamamoto et al. [2002]; Molhoek et al. [2011]). Peptides at the concentration of 10 mM were incubated with trypsin or chymotrypsin (0.2 mg/ml) at 37 °C. 40 µl samples of the incubations were taken for the time of 0 and 360 min, respectively. Then, the samples were mixed with 80 µl of 15% trifluoroacetic acid (TFA) and 80 µl acetonitrile which incubated at 4 °C for at least 15 min to precipitate proteins. The supernatant was collected of each sample after centrifugation at 13,000 rpm for 10 min and were detected with reverse phase high performance liquid chromatography (RP-HPLC) analysis.
Fig. 7 HPLC analysis of the susceptibility of polybia-MPI, D-MPI and D-lys-MPI to trypsin and chymotrypsin. Peptides at the concentration of 10 mM were incubated with trypsin or chymotrypsin at 37 °C. At the determined time interval, samples were taken and mixed with trifluoroacetic acid (TFA) and acetonitrile to precipitate proteins, respectively. Then the samples were detected with reverse phase high performance liquid chromatography (RP-HPLC) analysis

In brackets after ≈: the same amount, converted by molar mass. Where a SMILES comes first, the peptide text is derived from it. Where no end group is shown, it is not given here. [ ]: non-standard residue; d: D form.

A word on the MIC: it is the least concentration at which growth counts as inhibited. Read a high MIC as a less susceptible organism. Consider IDWKKLLDAAKQIL-NH2 [Polybia-MPI], for which the minimum inhibitory concentration (MIC) with E. coli (ATCC 2592) is on record as 32 µM; against sakazakii (ATCC 29544), 64 µM; in data set [1], 8 µM; in data set [2], 8 µM; in [3], 32 µM; in data set [4], 128 µM. Besides, the MIC in data set [5] is given as 16 µM; in [6], 32 µM; in [7], 32 µM; in data set [8] it was 8 µM; in data set [9], 8 µM; in data set [10], 64 µM. This compound gave an MIC in the data set on (ATCC 700603) of 64 µM. The “susceptibility to proteases in human serum by HPLC profile” value (“susceptibility to proteases” for short) in data set [11] is on record as “susceptible”. For the same compound, the MBC/MFC is on record as 128 µM in [12]; 16 µM against C. krusei (ATCC 6258); 32 µM in the data set with C.tropicalis (ATCC 750); 16 µM against C. albicans (ATCC 14053); 32 µM against C. glabrata (ATCC 2001). In addition, the “susceptibility to trypsin by HPLC profile” value (from here on “susceptibility to trypsin”) in the data set on trypsin is listed as “susceptible”.

In the case of `CC[C@@H](C)[C@@H](N)C(=O)N[C@H](CC(=O)O)C(=O)N[C@H](Cc1c[nH]c2ccccc12)C(=O)N[C@H](CCCCN)C(=O)N[C@H](CCCCN)C(=O)N[C@H](CC(C)C)C(=O)N[C@H](CC(C)C)C(=O)N[C@H](CC(=O)O)C(=O)N[C@H](C)C(=O)N[C@H](C)C(=O)N[C@H](CCCCN)C(=O)N[C@H](CCC(N)=O)C(=O)N[C@@H](C(=O)N[C@H](CC(C)C)C(N)=O)[C@H](C)CC` [D-MPI] (H-[dI][dD][dW][dK][dK][dL][dL][dD][dA][dA][dK][dQ][dI][dL]-NH2), the MIC in the data set on E. coli (ATCC 2592) was 16 µM (≈ 26.5 µg/mL); in the data set with sakazakii (ATCC 29544), 32 µM (≈ 52.9 µg/mL); in data set [1], 8 µM (≈ 13.2 µg/mL); in [2], 16 µM (≈ 26.5 µg/mL); in data set [3], 32 µM (≈ 52.9 µg/mL); in data set [4] it was 64 µM (≈ 106 µg/mL). The MIC was 16 µM (≈ 26.5 µg/mL) in data set [5]; 16 µM (≈ 26.5 µg/mL) in [6]; 16 µM (≈ 26.5 µg/mL) in [7]; 8 µM (≈ 13.2 µg/mL) in data set [8]; 16 µM (≈ 26.5 µg/mL) in data set [9]; 32 µM (≈ 52.9 µg/mL) in [10]. The compound further gave an MIC in the data set on (ATCC 700603) of 64 µM (≈ 106 µg/mL). The “susceptibility to proteases” value in data set [11] is recorded as “not or only partly degraded”. Besides, the MBC/MFC in data set [12] was 32 µM (≈ 52.9 µg/mL); with C. krusei (ATCC 6258), 8 µM (≈ 13.2 µg/mL); in the data set with C.tropicalis (ATCC 750), 16 µM (≈ 26.5 µg/mL); against C. albicans (ATCC 14053), 16 µM (≈ 26.5 µg/mL); in the data set with C. glabrata (ATCC 2001) it was 32 µM (≈ 52.9 µg/mL). Besides, the “susceptibility to trypsin” value in the data set with trypsin is listed as “not or only partly degraded”.

As to `CC[C@H](C)[C@H](N)C(=O)N[C@@H](CC(=O)O)C(=O)N[C@@H](Cc1c[nH]c2ccccc12)C(=O)N[C@H](CCCCN)C(=O)N[C@H](CCCCN)C(=O)N[C@@H](CC(C)C)C(=O)N[C@@H](CC(C)C)C(=O)N[C@@H](CC(=O)O)C(=O)N[C@@H](C)C(=O)N[C@@H](C)C(=O)N[C@H](CCCCN)C(=O)N[C@@H](CCC(N)=O)C(=O)N[C@H](C(=O)N[C@@H](CC(C)C)C(N)=O)[C@@H](C)CC` [D-lys-MPI] (H-IDW[dK][dK]LLDAA[dK]QIL-NH2), the minimal inhibitory concentration (MIC) was over 256 µM in the data set with E. coli (ATCC 2592); over 256 µM in the data set on sakazakii (ATCC 29544); over 256 µM in data set [1]; 128 µM (≈ 212 µg/mL) in [2]; over 256 µM in data set [3]; over 256 µM in [4]. For the same compound, the MIC in data set [5] is recorded as 256 µM (≈ 423 µg/mL); in [6], 256 µM (≈ 423 µg/mL); in [7], over 256 µM; in data set [8] it was 128 µM (≈ 212 µg/mL); in data set [9], 64 µM (≈ 106 µg/mL); in data set [10], over 256 µM. The compound also returned an MIC against (ATCC 700603) of over 256 µM. In addition, the “susceptibility to proteases” value in [11] is on record as “not or only partly degraded”. The MBC/MFC is over 256 µM in data set [12]; 256 µM (≈ 423 µg/mL) against C. krusei (ATCC 6258); 128 µM (≈ 212 µg/mL) against C.tropicalis (ATCC 750); over 256 µM in the data set on C. albicans (ATCC 14053); 256 µM (≈ 423 µg/mL) with C. glabrata (ATCC 2001). In addition, the “susceptibility to trypsin” value in the data set with trypsin was “not or only partly degraded”.
